Reference: patent US11891405B2, “Furo[3,4-b]pyrrole-containing BTK inhibitor” (CHIA TAI TIANQING PHARMACEUTICAL GROUP CO., LTD., priority 2018, dated 2024)

How the values were obtained:
ITK = target: T1, ITK (Homo sapiens, UniProt Q08881); assay: Screening for ITK inhibition activity; assay type: biochemical
T1 sequence (Q08881 1-620): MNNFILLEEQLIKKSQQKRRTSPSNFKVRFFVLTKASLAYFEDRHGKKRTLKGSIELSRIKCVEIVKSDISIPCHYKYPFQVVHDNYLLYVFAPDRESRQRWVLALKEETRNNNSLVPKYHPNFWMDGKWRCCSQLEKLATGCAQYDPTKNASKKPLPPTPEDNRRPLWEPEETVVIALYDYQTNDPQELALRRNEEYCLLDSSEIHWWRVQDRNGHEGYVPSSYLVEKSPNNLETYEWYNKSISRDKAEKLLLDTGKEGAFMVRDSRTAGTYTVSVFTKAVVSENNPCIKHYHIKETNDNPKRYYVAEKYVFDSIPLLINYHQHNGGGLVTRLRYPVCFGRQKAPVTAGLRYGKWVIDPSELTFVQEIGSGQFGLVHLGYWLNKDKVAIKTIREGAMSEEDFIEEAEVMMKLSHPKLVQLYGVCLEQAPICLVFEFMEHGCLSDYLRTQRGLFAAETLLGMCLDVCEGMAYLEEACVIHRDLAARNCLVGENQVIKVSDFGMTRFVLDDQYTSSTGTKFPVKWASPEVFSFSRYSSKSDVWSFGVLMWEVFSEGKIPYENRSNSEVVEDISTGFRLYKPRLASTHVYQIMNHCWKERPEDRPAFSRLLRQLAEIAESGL
Protocol: 1.4 Screening for ITK ([…]) Inhibition Activity
50 ng/μL ITK stock solution was diluted with kinase buffer (50 mM HEPES, 10 mM MgCl2, 2 mM DTT, 1 mM EGTA, 0.01% Tween 20), and 6 μL of 1.67× working solution at […] (final concentration: 0.05ng/μL) was added to each well. Different compounds dissolved in DMSO were added to the wells using a nanoliter pipettor, resulting in the final concentration of 1000 nM to 0.24 nM (4-fold gradient for 7 concentrations in total), and blank control wells (without enzyme) and negative control wells (with enzyme, plus vehicle DMSO) were set. After enzyme was reacted with the compound or vehicle for 30 min, 5×ATP at 50 μM (final concentration: 10 μM) prepared with kinase buffer was mixed with 5× substrate at 0.5 μM (final concentration: 0.1 μM, ULight-poly GT) at a ratio of 1:1, and the mixture was added to each well at 4 μL/well. After being sealed with a film, the plate was incubated at room temperature for 2 h, then 5 μL of 4×EDTA at 40 mM (final concentration: 10 mM) was added to each well. After the plate was incubated for 5 min at room temperature, 5 μL of 4×detection reagent at 8 nM (final concentration: 2 nM, Eu-anti-phospho-tyrosine antibody) was added to each well, followed by incubation at room temperature for 1 h. The plate was read using a PE Envision multi-functional microplate reader (excitation: 320 nm, emission: 665 nm), and IC50 was calculated by four-parameter fitting.

[1] = Mouse liver microsome metabolic stability; assay type: in vitro ADME; conditions: mouse liver microsomes
Protocol: 3.2 Mouse Liver Microsome Assay
(§1) 300 μL of final incubation system: 30 μL of mouse liver microsomes (protein concentration: 5 mg/mL, XENOTECH, USA), 30 μL of NADPH (10 mM)+MgCl2 (5 mM), 3 μL of the substrate, i.e., the example compound (dissolved in 50% aqueous acetonitrile solution, 100 μM), and 237 μL of PBS buffer, wherein the proportion of the organic solvent (acetonitrile) was 0.5%. Each tube was added with 270 μL of a mixed solution of substrate and enzyme, and after being pre-incubated at 37° C. for 5 min, added with 30 μL of NADPH+MgCl2. Then 50 μL of the mixture was taken at 0 min, 15 min, 30 min and 60 min, and added with 300 μL of diazepam glacial acetonitrile (20 ng/mL) containing an internal standard to quench the reaction. The reaction mixture was vortexed for 5 min, and centrifuged (13,000 rpm, 4° C.) for 10 min. 100 μL of supernatant was pipetted into a sample vial, from which 1 μL of supernatant was injected and analyzed by LC-MS/MS, and the residual percentage was calculated.

[2] = Human liver microsome metabolic stability; assay type: in vitro ADME; conditions: human liver microsomes
Protocol: 3.1 Human Liver Microsome Assay
as §1, with “human” for “mouse”

[3] = Rat liver microsome metabolic stability; assay type: in vitro ADME; conditions: rat liver microsomes
Protocol: 3.3 Rat Liver Microsome Assay
as §1, with “rat” for “mouse”, “remaining” for “residual”

| SMILES | IC50 (ITK) | Mouse (MLM) Remaining % (T = 60 min) [1] | Human (HLM) Remaining % (T = 60 min) [2] | Rat (RLM) Remaining % (T = 60 min) [3] |
| --- | --- | --- | --- | --- |
| CC#CC(=O)N1[C@@H]2COC[C@@H]2C[C@H]1c1nc(-c2ccc(C(=O)Nc3ccccn3)cc2)c2c(N)nccn12 [Compound I-1, 4-(8-amino-3-((2S,3aR,6aS)-1-(but-2-ynoyl)hexahydro-1H-furo[3,4-b]pyrrol-2-yl)imidazo [1,5-a]pyrazin-1-yl)-N-(pyridin-2-yl)benzamide] | > 1000 nM | 90% | 89% | 30% |
| C=CC(=O)N1[C@@H]2COC[C@@H]2C[C@H]1c1nc(-c2ccc(C(=O)Nc3ccccn3)cc2)c2c(N)nccn12 [Compound I-3, 4-(3-((2S,3AR,6AS)-1-ACRYLOYLHEXAHYDRO-1H-FURO[3,4-B]PYRROL-2-YL)-8-AMINOIMIDAZO [1,5-A]PYRAZIN-1-YL)-N-(PYRIDIN-2-YL)BENZAMIDE] | > 1000 nM | 89% | 74% | 42% |
| CC#CC(=O)N1[C@@H]2COC[C@@H]2C[C@H]1c1nc(-c2ccc(C(=O)Nc3cc(C(F)(F)F)ccn3)cc2F)c2c(N)nccn12 [Compound I-4, 4-(8-AMINO-3-((2S,3AR,6AS)-1-(BUT-2-YNOYL)HEXAHYDRO-1H-FURO[3,4-B]PYRROL-2-YL)IMIDAZO[1,5-A]PYRAZIN-1-YL)-3-FLUORO-N-(4-(TRIFLUOROMETHYL)PYRIDIN-2-YL)BENZAMIDE] | > 1000 nM | 32% | 15% | 26% |
| Nc1nccn2c([C@@H]3C[C@H]4COC[C@H]4N3C(=O)C3CC3)nc(-c3ccc(C(=O)Nc4cc(C(F)(F)F)ccn4)cc3F)c12 [Compound I-7, 4-(8-AMINO-3-((2S,3AR,6AS)-1-(CYCLOPROPANECARBONYL)HEXAHYDRO-1H-FURO[3,4-B]PYRROL-2-YL)IMIDAZO[1,5-A]PYRAZIN-1-YL)-3-FLUORO-N-(4-(TRIFLUOROMETHYL)PYRIDIN-2-YL)BENZAMIDE] | > 1000 nM | 55.7% | 29.9% | 33.9% |
